The target of assay [1] is T1, glucan synthase (Candida albicans, UniProt O13428).
T1 construct: glucan synthase sources (2 μL permeabilized PM503 cells, or 3 μL membrane preparations from either PM503, BWP17, or ND158); endogenous in cells; host or cells: C. albicans strain BWP17, 100,000 g membrane fraction
As to the kind of experiment: β(1,3) glucan synthase assay, C. albicans BWP17 membrane preparation (IC50). Conditions: in vitro fungal enzyme activity assay, read-out: IC50 (μg/mL) Candida albicans (converted). Type of assay: biochemical. Here is the method: (§1) β(1,3) Glucan Synthase Assay:
(§2) 2. Preparation of Membrane Fraction of Yeast Cells
(§3) The protocol was modified from Douglas et al. (Journal of Bacteriology, 176, 5686-5696, 1994). For the preparation of S. cerevisiae and C. albicans membrane fractions, 1 liter of YPD supplemented with 0.02 mg/mL adenine and 0.08 mg/mL uracil was inoculated with 10 mL starter culture of PM503 (OD600=4) or the C. albicans strain BWP17 (OD600=12) in the same medium and grown at 30° C. until OD600 reached about 1. A. fumigatus (stain ND158) membranes were prepared by first preparing a spore suspension from agar slants by adding 6 mL of sterile saline, 0.1% Tween-20 solution to each slant, and resuspending by pipetting and scraping. The spore suspensions were used to inoculate two 200 mL flasks containing Sabouraud dextrose broth media. Cultures were incubated at 37° C., 250 rpm for ˜8 hrs. All cells, S. cerevisiae, C. albicans or A. fumigatus were harvested by centrifugation at 5,300 g at 4° C. for 40 minutes. After washing with 100 mL of breakage buffer (0.1 M KPi, pH 7.0, 1 mM EDTA, 1 mM DTT), the cell pellet was resuspended in 50 ml ice-cold breakage buffer. The mixture was transferred to a bead-beater chamber packed in ice (BioSpec Products, Bartlesville, Okla.). To each 50 mL sample was added 50 g of acid-washed glass beads ([…], Sigma). Cells were disrupted using 12×20 second pulses with 2 min-cooling intervals. Cell debris was removed by centrifugation at 3,000 g for 20 minutes at 4° C., and the supernatant was collected and centrifuged at 100,000 g for 1 hour at 4° C. to pellet the membrane fraction. The pellet was resuspended in 5 mL of ice-cold breakage buffer containing 25% glycerol, homogenized with a Dounce tissue homogenizer and stored at −80° C. in small aliquots.
(§4) 3. Glucan Synthase Assay and Compound Screening
The assay was performed according to Mo et at (Journal of Biological Chemistry, 269, 31267-31274, 1994) and Taft et al. (The Journal of Antibiotics, 47, 1001-1009, 1994), in a 96-well Optiplate (PerkinElmer). To each well was added 3 μL 10× compound stock (in 100% DMSO), or 3 μL of 30 μg/mL caspofungin in 100% DMSO (as positive control), or 3 μL 100% DMSO (as negative control), followed by the addition of appropriate amount of glucan synthase sources (2 μL permeabilized PM503 cells, or 3 μL membrane preparations from either PM503, BWP17, or ND158). The reaction was initiated by adding 25 μL reaction buffer (0.6 mM UDP-Glucose 0.6 nCi [U-^14C]DUP-Glucose (327 mCi/mmol, Amersham Bioscience), 20 μM GTP-γ-S, 25 mM NaF, 7.5 mg/mL BSA, 8% glycerol in 75 mM Tris-HCl, pH 7.5). The plate was incubated on a shaker for 1.5 hour at room temperature before being quenched with 250 μL 1% TCA (Trichloroacetic Acid). The quenched reaction was mixed by pipetting, and immediately transferred to a 96-well filter plate (Glass fiber B on 0.65 μm hydrophilic durapore membrane, Millipore) pre-wetted with wash buffer (5% TCA, 60 mM NaPPi). The glucan product was retained on the filter membrane by applying vacuum to the plate using a MultiScreen Resist Vacuum Manifold (Millipore). The filter plate was further washed 4 times with 200 μL wash buffer. The plate was dried at 50° C. for 30 minutes. 100 μL of Microscint-0 (PerkinElmer) was added to each well, and plate was counted in a TopCount NXT plate reader (PerkinElmer).
Dose-response curves were plotted from inhibition data generated. IC50 was determined by fitting the CPM versus the Concentration of the test compound plot with the following equation (4-parameter logistic model, ID Business Solutions XLfit 4.2).

Assay [2] has as its target T2, glucan synthase (Saccharomyces cerevisiae, UniProt P38631).
T2 construct: glucan synthase sources (2 μL permeabilized PM503 cells, or 3 μL membrane preparations from either PM503, BWP17, or ND158); endogenous in cells; host or cells: S. cerevisiae strain PM503, permeabilized cells or 100,000 g membrane fraction
As to the kind of experiment: β(1,3) glucan synthase assay, S. cerevisiae PM503 permeabilized cells or membrane preparation (IC50). The assay is classed as biochemical. Here is the method:
as §1
1. Preparation of Permeabilized Saccharomyces cerevisiae Cells.
Permeabilization of yeast cells was performed according to Crotti et al. (Analytical Biochemistry, 292, 8-16, 2001) with some modifications. A 10 ml-starter culture of the S. cerevisiae strain in YPD medium (1% yeast extract, 2% bacto-peptone, 2% dextrose) with OD600=3-4 was used to inoculate 1 liter of YPD. The culture was grown at 30° C. until […]. Cells were collected by centrifugation (5,300 g for 15 min at 4° C.) and resuspended in buffer (40 mM EDTA, 100 mM β-mercaptoethanol) at 1 g of cell pellet/3.5 ml buffer. The cell suspension was shaken for 30 min at 30° C., followed by centrifugation at 12,000 g for 10 min at 4° C. The cell pellet was washed with 5 ml 0.8 M sorbitol and resuspended in 6.8 ml of 2.9 mM citric acid, 11.3 mM dibasic sodium phosphate, 1 mM EDTA, 0.8 M sorbitol, with constant shaking at 30)C for 30 min. After centrifugation at 12,000 g for […] at 4° C., the pellet was resuspended in 31.3 ml 50 mM Tris-HCl, pH 7.0, and incubated on ice for 5 min. The mixture was then centrifuged at 12,000 g for 10 min at 4 AC, and the pellet was resuspended in 1 ml of 50 mM Tris-HCl and 33% glycerol, pH 7.5. The permeabilized cell preparation was stored at […] in aliquots.
as §2, §3, §4
The assay was performed according to Mo et at (Journal of Biological Chemistry, 269, 31267-31274, 1994) and Taft et al. (The Journal of Antibiotics, 47, 1001-1009, 1994), in a 96-well Optiplate (PerkinElmer). To each well was added 3 μL 10× compound stock (in 100% DMSO), or 3 μL of 30 μg/mL caspofungin in 100% DMSO (as positive control), or 3 μL 100% DMSO (as negative control), followed by the addition of appropriate amount of glucan synthase sources (2 μL permeabilized PM503 cells, or 3 μL membrane preparations from either PM503, BWP17, or ND158). The reaction was initiated by adding 25 μL reaction buffer (0.6 mM UDP-Glucose 0.6 nCi [U-^14C]DUP-Glucose (327 mCi/mmol, Amersham Bioscience), 20 μM GTP-γ-S, 25 mM NaF, 7.5 mg/mL BSA, 8% glycerol in 75 mM Tris-HCl, pH 7.5). […]

T1 sequence (O13428 1-1897): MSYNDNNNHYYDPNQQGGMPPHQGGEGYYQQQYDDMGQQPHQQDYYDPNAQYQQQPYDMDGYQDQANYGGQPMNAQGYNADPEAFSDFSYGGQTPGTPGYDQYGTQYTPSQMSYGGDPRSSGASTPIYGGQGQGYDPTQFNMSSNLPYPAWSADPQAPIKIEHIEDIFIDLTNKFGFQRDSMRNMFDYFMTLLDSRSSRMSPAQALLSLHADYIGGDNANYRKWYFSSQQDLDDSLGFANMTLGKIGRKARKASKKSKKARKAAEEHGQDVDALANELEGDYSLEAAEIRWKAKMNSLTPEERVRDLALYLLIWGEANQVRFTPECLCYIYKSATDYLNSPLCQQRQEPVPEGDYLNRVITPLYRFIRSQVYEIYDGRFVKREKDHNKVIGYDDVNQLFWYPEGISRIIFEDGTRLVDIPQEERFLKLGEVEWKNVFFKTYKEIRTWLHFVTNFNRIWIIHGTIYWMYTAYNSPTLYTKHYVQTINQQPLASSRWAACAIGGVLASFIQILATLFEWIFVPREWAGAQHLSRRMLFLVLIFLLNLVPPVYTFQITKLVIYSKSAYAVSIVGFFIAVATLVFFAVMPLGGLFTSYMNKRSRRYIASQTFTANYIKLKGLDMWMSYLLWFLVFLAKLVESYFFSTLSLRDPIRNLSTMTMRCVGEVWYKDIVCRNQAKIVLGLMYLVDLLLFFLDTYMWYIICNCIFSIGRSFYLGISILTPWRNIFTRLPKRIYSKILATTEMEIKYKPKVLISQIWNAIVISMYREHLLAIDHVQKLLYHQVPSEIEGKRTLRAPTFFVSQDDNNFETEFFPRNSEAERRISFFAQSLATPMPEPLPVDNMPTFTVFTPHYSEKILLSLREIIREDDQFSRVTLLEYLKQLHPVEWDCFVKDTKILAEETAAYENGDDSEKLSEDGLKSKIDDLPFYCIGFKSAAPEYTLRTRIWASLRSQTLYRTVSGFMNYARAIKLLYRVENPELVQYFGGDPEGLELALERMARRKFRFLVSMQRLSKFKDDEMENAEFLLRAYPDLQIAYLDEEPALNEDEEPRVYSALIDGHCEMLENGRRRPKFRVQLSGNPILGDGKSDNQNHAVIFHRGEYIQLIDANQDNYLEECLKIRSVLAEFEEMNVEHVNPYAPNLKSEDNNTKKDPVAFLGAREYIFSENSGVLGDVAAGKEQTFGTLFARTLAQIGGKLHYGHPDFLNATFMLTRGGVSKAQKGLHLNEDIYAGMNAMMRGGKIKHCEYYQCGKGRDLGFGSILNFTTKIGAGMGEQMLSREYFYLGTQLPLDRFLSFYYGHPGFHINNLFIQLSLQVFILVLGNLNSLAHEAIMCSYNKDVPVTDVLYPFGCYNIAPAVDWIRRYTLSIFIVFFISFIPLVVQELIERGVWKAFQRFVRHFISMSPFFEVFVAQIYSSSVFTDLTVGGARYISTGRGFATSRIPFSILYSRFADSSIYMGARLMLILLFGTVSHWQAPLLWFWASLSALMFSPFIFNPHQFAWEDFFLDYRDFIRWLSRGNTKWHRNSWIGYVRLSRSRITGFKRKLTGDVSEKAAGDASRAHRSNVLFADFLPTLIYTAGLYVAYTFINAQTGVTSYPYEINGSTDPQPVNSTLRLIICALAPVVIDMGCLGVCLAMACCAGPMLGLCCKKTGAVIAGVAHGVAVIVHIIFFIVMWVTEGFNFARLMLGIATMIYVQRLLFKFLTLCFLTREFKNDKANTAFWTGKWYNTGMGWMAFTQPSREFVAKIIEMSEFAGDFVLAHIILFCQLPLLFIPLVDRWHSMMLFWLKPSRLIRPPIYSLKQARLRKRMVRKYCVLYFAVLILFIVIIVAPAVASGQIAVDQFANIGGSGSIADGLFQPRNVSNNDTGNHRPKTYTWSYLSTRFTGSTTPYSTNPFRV
T1 sequence (O42825 1-195 partner limits assumed): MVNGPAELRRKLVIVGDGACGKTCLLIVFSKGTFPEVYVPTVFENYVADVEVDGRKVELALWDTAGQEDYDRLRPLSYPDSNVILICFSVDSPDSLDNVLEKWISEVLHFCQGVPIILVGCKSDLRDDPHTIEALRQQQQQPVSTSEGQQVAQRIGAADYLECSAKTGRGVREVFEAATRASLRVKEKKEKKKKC
T2 sequence (P06780 1-206): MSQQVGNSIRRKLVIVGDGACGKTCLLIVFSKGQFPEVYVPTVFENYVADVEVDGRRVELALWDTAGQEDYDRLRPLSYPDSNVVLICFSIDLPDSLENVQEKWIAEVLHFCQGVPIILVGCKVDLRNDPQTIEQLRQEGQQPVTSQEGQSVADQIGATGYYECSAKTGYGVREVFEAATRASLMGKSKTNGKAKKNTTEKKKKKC
T2 sequence (P38631 whole entry): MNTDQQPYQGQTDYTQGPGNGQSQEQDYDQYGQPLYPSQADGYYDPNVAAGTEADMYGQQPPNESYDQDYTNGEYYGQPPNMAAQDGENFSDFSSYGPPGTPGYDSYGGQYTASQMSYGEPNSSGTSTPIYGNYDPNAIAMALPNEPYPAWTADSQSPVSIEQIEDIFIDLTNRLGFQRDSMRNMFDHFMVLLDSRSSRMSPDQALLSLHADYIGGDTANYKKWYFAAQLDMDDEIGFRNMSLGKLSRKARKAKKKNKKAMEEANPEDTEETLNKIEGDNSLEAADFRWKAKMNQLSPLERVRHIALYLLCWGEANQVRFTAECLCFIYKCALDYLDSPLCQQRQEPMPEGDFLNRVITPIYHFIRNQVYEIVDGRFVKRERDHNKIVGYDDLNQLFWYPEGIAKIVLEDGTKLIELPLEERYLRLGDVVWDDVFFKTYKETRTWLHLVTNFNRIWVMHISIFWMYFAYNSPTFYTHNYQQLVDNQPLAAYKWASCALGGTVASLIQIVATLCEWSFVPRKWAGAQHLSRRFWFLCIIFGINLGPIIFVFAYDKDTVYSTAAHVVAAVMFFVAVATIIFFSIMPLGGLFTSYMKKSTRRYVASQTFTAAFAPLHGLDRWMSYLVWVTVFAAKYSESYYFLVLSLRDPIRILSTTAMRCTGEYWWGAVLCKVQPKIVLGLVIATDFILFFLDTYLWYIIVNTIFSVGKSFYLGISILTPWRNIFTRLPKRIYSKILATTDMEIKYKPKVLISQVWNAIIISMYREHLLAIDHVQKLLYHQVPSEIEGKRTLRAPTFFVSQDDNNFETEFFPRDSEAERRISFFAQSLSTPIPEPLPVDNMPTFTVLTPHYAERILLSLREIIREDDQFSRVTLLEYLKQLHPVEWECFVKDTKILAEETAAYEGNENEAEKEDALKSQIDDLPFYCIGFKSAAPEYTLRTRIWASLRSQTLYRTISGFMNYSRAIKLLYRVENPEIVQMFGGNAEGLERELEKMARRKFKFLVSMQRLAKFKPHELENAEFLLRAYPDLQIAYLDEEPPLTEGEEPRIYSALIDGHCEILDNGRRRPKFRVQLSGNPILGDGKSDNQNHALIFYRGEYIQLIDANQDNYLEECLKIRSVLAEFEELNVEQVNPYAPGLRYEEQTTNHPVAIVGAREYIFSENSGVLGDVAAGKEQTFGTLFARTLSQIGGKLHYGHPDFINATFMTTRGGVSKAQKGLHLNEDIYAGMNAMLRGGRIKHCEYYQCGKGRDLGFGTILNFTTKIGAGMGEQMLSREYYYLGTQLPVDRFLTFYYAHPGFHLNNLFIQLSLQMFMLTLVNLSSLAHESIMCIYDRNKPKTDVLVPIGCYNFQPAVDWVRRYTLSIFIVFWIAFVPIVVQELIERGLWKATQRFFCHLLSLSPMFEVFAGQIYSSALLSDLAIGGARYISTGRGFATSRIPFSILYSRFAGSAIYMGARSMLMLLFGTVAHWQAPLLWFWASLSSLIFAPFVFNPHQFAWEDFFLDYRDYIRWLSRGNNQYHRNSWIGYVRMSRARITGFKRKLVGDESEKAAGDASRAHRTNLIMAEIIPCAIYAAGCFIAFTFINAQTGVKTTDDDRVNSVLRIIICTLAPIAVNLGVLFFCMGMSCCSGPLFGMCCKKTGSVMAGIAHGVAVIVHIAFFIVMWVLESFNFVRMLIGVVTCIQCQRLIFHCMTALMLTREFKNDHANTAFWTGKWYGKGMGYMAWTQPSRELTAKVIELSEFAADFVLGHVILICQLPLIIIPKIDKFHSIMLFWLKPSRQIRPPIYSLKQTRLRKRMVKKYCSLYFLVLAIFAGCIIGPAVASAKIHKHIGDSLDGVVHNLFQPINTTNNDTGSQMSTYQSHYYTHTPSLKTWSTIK

For the compound `Cc1ccc(Cc2c(N3CCN(S(=O)(=O)C(C)C)CC3)cnn(-c3cc(F)cc(F)c3)c2=O)cc1` [119Z], the IC50 at glucan synthase [1] was 1610 nM; against glucan synthase [2], 125 nM.
Turning to `CC1(COc2c(N3CCN(S(=O)(=O)NCc4ccc(N)c(F)c4)CC3)cnn(-c3cccc(Cl)c3)c2=O)CC1` [1712Z], the IC50 on glucan synthase [1] is 104 nM; against glucan synthase [2], 139 nM.
For `CC1(COc2c(N3CCN(S(=O)(=O)Cc4ccc(Br)cc4)CC3)cnn(-c3cc(F)cc(F)c3)c2=O)CC1` [1529Z-33] the same measures were 32.8 nM and 16.4 nM.
In the case of `CS(=O)(=O)N1CCN(c2cnn(-c3cccc(Cl)c3)c(=O)c2OC2CCc3ccccc3C2)CC1` (centres unmarked) [974Z], the IC50 at glucan synthase [1] was 641 nM; against glucan synthase [2], 252 nM.
Take `CC(C)S(=O)(=O)N1CCN(c2cnn(-c3cccc(F)c3)c(=O)c2OC2CCCCC2)CC1` [402Z]: the IC50 on glucan synthase [1] was 794 nM; against glucan synthase [2], 153 nM.
On to `CC1CCC(Oc2c(N3CCN(S(=O)(=O)CCCF)CC3)cnn(-c3cccc(Cl)c3)c2=O)C1` (centres unmarked) [1761Z], for which the IC50 is 312 nM on glucan synthase [1] and 136 nM against glucan synthase [2].
Consider `Nc1ccc(CS(=O)(=O)N2CCN(c3cnn(-c4cccc(Cl)c4)c(=O)c3OCC3CCC3)CC2)cc1` [1529Z-73], for which the IC50 on glucan synthase [1] is 349 nM; against glucan synthase [2], 165 nM.
The like results for `CCOCCOc1c(N2CCN(c3ncc([N+](=O)[O-])s3)CC2)cnn(-c2cccc(C)c2)c1=O` [240Z] were, in that order, 201000 nM and 201000 nM.
The like results for `CC1(COc2c(N3CCN(S(=O)(=O)Cc4ccc5ncoc5c4)CC3)cnn(-c3cc(F)cc(F)c3)c2=O)CC1` [1891Z] were, in that order, 122 nM and 87.5 nM.
As for `CNc1cccc(CS(=O)(=O)N2CCN(c3cnn(-c4cccc(Cl)c4)c(=O)c3OCC3(C)CC3)CC2)c1` [1969Z], the IC50 on glucan synthase [1] and against glucan synthase [2] was 215 nM in each case.
Take `Cc1cc(CS(=O)(=O)N2CCN(c3cnn(-c4cccc(Cl)c4)c(=O)c3OCC3(C)CC3)CC2)ccc1N` [1869Z]: the IC50 was 143 nM on glucan synthase [1] and 53.8 nM at glucan synthase [2].
In the case of `COc1cccc(CS(=O)(=O)N2CCN(c3cnn(-c4cccc(Cl)c4)c(=O)c3OCC3(C)CC3)CC2)c1N` [Compound 1574ZI], the IC50 at glucan synthase [1] and against glucan synthase [2] was 87.1 nM in each case.
For the compound `O=c1c(OCC2(CF)CC2)c(N2CCN(S(=O)(=O)NCc3ccc4ncoc4c3)CC2)cnn1-c1cccc(Cl)c1` [1743Z], the IC50 was 99.5 nM on glucan synthase [1] and 116 nM at glucan synthase [2].
Regarding `Cc1nc2ccc(CS(=O)(=O)N3CCN(c4cnn(-c5cc(F)cc(F)c5)c(=O)c4OCC4(C)CC4)CC3)cc2o1` [1898Z], the IC50 on glucan synthase [1] is 102 nM; against glucan synthase [2], 85.4 nM.
Take `Nc1ccccc1CS(=O)(=O)N1CCN(c2cnn(-c3cc(F)cc(F)c3)c(=O)c2OC2CCCC2)CC1` [738Z]: the IC50 at glucan synthase [1] is 128 nM; on glucan synthase [2], 73.3 nM.
Regarding `O=c1c(OCC2CC2)c(N2CCN(S(=O)(=O)Cc3ccccc3)CC2)cnn1-c1cccc(Cl)c1` [1529Z-185], the figures for the IC50 at glucan synthase [1] and against glucan synthase [2] were 38.8 nM and 11.6 nM, respectively.
Regarding `CC1CC1COc1c(N2CCN(S(=O)(=O)Cc3ccccc3)CC2)cnn(-c2cc(F)cc(F)c2)c1=O` (centres unmarked) [1529Z-182], the IC50 is 18.8 nM at glucan synthase [1] and 1.88 nM at glucan synthase [2].
Take `CC(Oc1c(N2CCN(S(=O)(=O)Cc3cccc(N)c3)CC2)cnn(-c2cc(F)cc(F)c2)c1=O)C(C)(C)C` (centres unmarked) [971Zbb]: the results for the IC50 on glucan synthase [1] and at glucan synthase [2] were 2850 nM and 588 nM, respectively.
`CC(C)(C)COc1c(N2CCN(S(=O)(=O)Cc3cccc(N)c3)CC2)cnn(-c2cccc(Cl)c2)c1=O` [1529Z-151]: the IC50 on glucan synthase [1] was 165 nM; at glucan synthase [2], 128 nM.
The like results for `O=c1c(OC2Cc3ccccc3CC2F)c(N2CCN(S(=O)(=O)CF)CC2)cnn1-c1cc(F)cc(F)c1` (centres unmarked) [1267Z] were, in that order, 633 nM and 199 nM.
Consider `N[C@@H](Cc1ccc(Cl)cc1)C(=O)N1CCN(c2cnn(-c3ccccc3)c(=O)c2Sc2ccc(F)cc2)CC1` [1Z], for which, at glucan synthase [1], the IC50 is 17700 nM.
